Source: patent publication US20240082273A1, “NEUROKININ INHIBITORS SUCH AS APREPITANT FOR TREATING NON SMALL CELL LUNG CARCINOMA OR BREAST CANCER WITHOUT MUTATIONS” (priority 2020, published 2024)

Legend:
Assay type in all cases: cell-based, human
Conditions in all cases: 48 hours
[1] = test system: breast cancer cell lines ER+/PR+/HER2− (MCF7, T47D); experiment: MTT proliferation, breast cancer cell lines ER+/PR+/HER2−
Protocol: (§1) All cells were cultured in wells under vendor-recommended conditions and exposed to different concentrations of aprepitant for 48 hours. In each case a group of wells of cells were used to which no treatment was applied and which were considered as controls. At 48 hours the number of cells was measured. To measure cell viability, the cytotoxicity of drugs in culture was evaluated using the 3-(4,5-Dimethyl-2-thiazolyl)-2,5-diphenyl-2H-tetrazolium bromide (MTT) reduction assay. This assay assesses cell viability through the indirect measurement of the activity of reductases that convert yellow soluble MTT into purple insoluble formazan salts. As MTT can only be reduced when these enzymes are active, the reaction is used as an indicator of the cell metabolic competence and, therefore, of viability. A variable number of cells (depending on the cell line) were seeded in 96 multi-well plates and grown during 24 hours. The following day, the culture medium was aspirated and fresh culture medium with the drug dissolved was added to the wells. After 24 hours or 48 hours cell viability was measurement by adding 10 μl of a 5 mg/ml MTT solution (M5655; Sigma-Aldrich) and 100 μl of HCl 0.01M-SDS 10% solution 4 hours later. After 24 hours, the absorbance was measured at 595 nm, using a multi-well plate reader (iMark, Bio-rad). Each condition was tested 5 times, obtaining 5 values of absorbance. All sample measurements were corrected using the blank (culture medium without cells) mean absorbance value, and normalized to positive control to determinate relative cell viability for each condition at 24 and 48 hours.

[2] = test system: lung cancer cell line with molecular profile EGFR+/ALK−/ROS1− (HCC4006); experiment: MTT proliferation, NSCLC cell line with EGFR+/ALK−/ROS1− profile
Text: (§2) EGFR, ALK and ROS1 are key molecular factors that may be used to determine pathological classification, prognosis, therapeutics and behaviour in patients with lung cancer. EGFR, ALK and ROS1 are biomarkers routinely analysed in the clinical practice of the management of patients with NSCLC. NSCLC with molecular profile EGFR-/ALK-/ROS1- presents a better response to treatment with the NK1 inhibitor aprepitant, compared to lung cancer with different profiles (in particular, EGFR+/ALK-/ROS1- and EGFR-/ALK+/ROS1-, in which EGFR and ALK respectively contain mutations relative to their wild type gene). Commercial lines of lung cancer were used as shown in Table 2 together with their molecular profile. The molecular profile of the cancer cell lines was determined by sequencing and can be consulted in the Cancer Cell Line Encyclopaedia database of public access available at the url: https://portals.broadinstitute.org/ccle All cells were cultured in wells under vendor-recommended conditions and exposed to different concentrations of aprepitant for 48 hours. In each case a group of wells of cells were used to which no treatment was applied and which were considered as controls. At 48 hours the number of cells was measured. Eight cell lines of human were used for the study of NK1 inhibitors (Table 3). All of them were maintained in culture in their respective culture media (Gibco,Thermo Fisher Scientific) supplemented with 10% foetal bovine serum (FBS) (Gibco, Thermo Fisher Scientific), 2 mM L-Glutamine (Gln) (Sigma-Aldrich, Merk), and […] and […] Gibco, Thermo Fisher Scientific) in a humidified incubator at 37° C. and 5% CO2. Cell culture media used are Dulbecco's Modified Eagle Medium (DMEM), and RPMI Medium 1640 (RPMI-1640). To measure cell viability, the cytotoxicity of drugs in culture was evaluated using the 3-(4,5-Dimethyl-2-thiazolyl)-2,5-diphenyl-2H-tetrazolium bromide (MTT) reduction assay. This assay assesses cell viability through the indirect measurement of the activity of reductases that convert yellow soluble MTT into purple insoluble formazan salts. As MTT can only be reduced when these enzymes are active, the reaction is used as an indicator of the cell metabolic competence and, therefore, of viability. A variable number of cells (depending on the cell line) were seeded in 96 multi-well plates and grown during 24 hours. The following day, the culture medium was aspirated and fresh culture medium with the drug dissolved was added to the wells. After 24 hours or 48 hours cell viability was measurement by adding 10 μl of a 5 mg/ml MTT solution (M5655; Sigma-Aldrich) and 100 μl of HCl 0.01M-SDS 10% solution 4 hours later. After 24 hours, the absorbance was measured at 595 nm, using a multi-well plate reader (iMark, Bio-rad). Each condition was tested 5 times, obtaining 5 values of absorbance. All sample measurements were corrected using the blank (culture medium without cells) mean absorbance value, and normalized to positive control to determinate relative cell viability for each condition at 24 and 48 hours.

H441 = experiment: MTT proliferation, H441
Text: as §2

[3] = test system: breast cancer cell line ER+/PR+/HER2+ (BT474); experiment: MTT proliferation, breast cancer cell line ER+/PR+/HER2+
Protocol: as §1

How did the Mean proliferation ([1]; aprepitant 0.3 μM) turn out when `C[C@@H](O[C@H]1OCCN(Cc2nc(=O)[nH][nH]2)[C@H]1c1ccc(F)cc1)c1cc(C(F)(F)F)cc(C(F)(F)F)c1` [Aprepitant] was run?
The Mean proliferation was 102.47.

And the Mean proliferation ([1]; aprepitant 1 μM)?
Its Mean proliferation is 99.16.

And the Mean proliferation ([1]; aprepitant 3 μM)?
Its Mean proliferation is 106.96.

And the Mean proliferation ([1]; aprepitant 10 μM)?
Its Mean proliferation is 81.55.

And the Mean proliferation ([1]; aprepitant 20 μM)?
The Mean proliferation was 67.98.

What about the Mean proliferation ([1]; aprepitant 30 μM) of the same molecule?
The Mean proliferation was 54.13.

What about the Mean proliferation ([1]; aprepitant 40 μM) of the same molecule?
The Mean proliferation was 35.22.

What about the Mean proliferation ([1]; aprepitant 50 μM) of the same molecule?
Its Mean proliferation is 21.79.

What about the Mean proliferation ([1]; aprepitant 60 μM) of the same molecule?
Its Mean proliferation is 11.7.

And the Mean proliferation ([2]; aprepitant 1 μM)?
The Mean proliferation was 101.53.

What about the Mean proliferation ([2]; aprepitant 3 μM) of the same molecule?
The Mean proliferation was 99.73.

What about the Mean proliferation ([2]; aprepitant 5 μM) of the same molecule?
Its Mean proliferation is 96.4.

And the Mean proliferation ([2]; aprepitant 10 μM)?
Its Mean proliferation is 89.14.

What about the Mean proliferation ([2]; aprepitant 20 μM) of the same molecule?
Its Mean proliferation is 69.95.

What about the Mean proliferation ([2]; aprepitant 30 μM) of the same molecule?
Its Mean proliferation is 54.9.

And the Mean proliferation ([2]; aprepitant 40 μM)?
Its Mean proliferation is 38.12.

What about the Mean proliferation ([2]; aprepitant 50 μM) of the same molecule?
The Mean proliferation was 24.82.

What about the Mean proliferation ([2]; aprepitant 60 μM) of the same molecule?
The Mean proliferation was 14.95.

And the Mean proliferation (H441; aprepitant 1 μM)?
The Mean proliferation was 100.6.

What about the Mean proliferation (H441; aprepitant 3 μM) of the same molecule?
The Mean proliferation was 90.97.

What about the Mean proliferation (H441; aprepitant 5 μM) of the same molecule?
Its Mean proliferation is 64.10.

And the Mean proliferation (H441; aprepitant 10 μM)?
Its Mean proliferation is 61.08.

What about the Mean proliferation (H441; aprepitant 20 μM) of the same molecule?
Its Mean proliferation is 53.64.

And the Mean proliferation (H441; aprepitant 30 μM)?
The Mean proliferation was 37.56.

What about the Mean proliferation (H441; aprepitant 40 μM) of the same molecule?
The Mean proliferation was 20.50.

What about the Mean proliferation (H441; aprepitant 50 μM) of the same molecule?
Its Mean proliferation is 3.14.

And the Mean proliferation (H441; aprepitant 60 μM)?
The Mean proliferation was 10.83.

And the Mean proliferation ([3]; aprepitant 0.3 μM)?
Its Mean proliferation is 100.88.

What about the Mean proliferation ([3]; aprepitant 1 μM) of the same molecule?
The Mean proliferation was 101.83.

And the Mean proliferation ([3]; aprepitant 3 μM)?
The Mean proliferation was 91.36.

What about the Mean proliferation ([3]; aprepitant 10 μM) of the same molecule?
Its Mean proliferation is 85.45.

What about the Mean proliferation ([3]; aprepitant 20 μM) of the same molecule?
The Mean proliferation was 80.23.

What about the Mean proliferation ([3]; aprepitant 30 μM) of the same molecule?
The Mean proliferation was 57.51.

What about the Mean proliferation ([3]; aprepitant 40 μM) of the same molecule?
The Mean proliferation was 43.65.

And the Mean proliferation ([3]; aprepitant 50 μM)?
The Mean proliferation was 23.8.

And the Mean proliferation ([3]; aprepitant 60 μM)?
Its Mean proliferation is 9.29.
